Where no end group is shown, it is not given here.
Legend:
E. coli = assay: microbe, parasite or virus in culture; type: cell-based, Escherichia coli (ATCC 8739)
Text: (§1) These standard strains of Escherichia coli (E. coli, ATCC 8739), Staphylococcus aureus (S. aureus, ATCC 6538), Pseudomonas aeruginosa (P. aeruginosa, ATCC 27853), Acinetobacter baumannii (A. baumannii, ATCC 1968), Candida albicans (ATCC 10231), and the clinical strain of Methicillin-resistant Staphylococcus aureus (MRSA, MRSA-Z) were obtained from Kunming Medical University. The standard strain of C. neoformans (ATCC 32045) was purchased from Shanghai Yingxin Laboratory Co., Ltd. (CAS NO. YXJ50058). Different strains of E. coli, S. aureus, MRSA, P. aeruginosa, and A. baumannii were cultured with shaking at 37 °C in Luria–Bertani (LB) medium. C. neoformans was cultured at 35 °C in Sabouraud Dextrose Agar (SDA) medium according to the manufacturer’s instructions.
(§2) According to Clinical and Laboratory Standards Institute (CLSI) protocols, the minimum inhibitory concentration (MIC) is the minimum drug concentration at which antibiotics inhibit the growth and reproduction of strains. The different strains were grown in their corresponding media at 35 °C or 37 °C until they entered the exponential growth phase. Fluconazole and amphotericin B were used as positive controls, and sterile 0.9% NaCl was used as a negative control. The peptides were diluted to various concentrations in sterile saline. According to 1 OD = 1 × 10^9 CFU/mL, the above bacterial solution was diluted to 2 × 10^5 CFU/mL with the corresponding medium. In advance, 100 μL of normal saline was added to a sterile 96-well plate, and 200 μL of the sample to be tested was added to the first well. The sample to be tested was subjected to double gradient dilution, and then 100 μL of bacterial solution with a concentration of 2 × 10^5 was added to each well. It was cultured at 35 °C or 37 °C for different times. The light absorption value of the bacterial solution at 600 nm was detected by a microplate reader (Epoch Etock, Biotek, Winooski, VT, USA), and the average concentration of the samples in the pores and adjacent pores that could not detect microbial growth was used as the MIC value.

S. aureus = assay: microbe, parasite or virus in culture; type: cell-based, Staphylococcus aureus (ATCC 6538)
Text: as §1, §2

C. albicans = assay: microbe, parasite or virus in culture; type: cell-based, Candida albicans (ATCC 10231)
Text: as §1, §2

C. neoformans ATCC 32045 [1] = assay: Fungal-killing kinetics; type: cell-based, Cryptococcus neoformans; conditions: 10 × MIC; 1 × 10^6 CFU/mL, SDB, 37 °C, colony count
Experimental: The single colony of C. neoformans ATCC 32045 was selected and cultured at 180 rpm and 37 °C, washed three times with normal saline, and then resuspended, and the fungal solution was diluted to 1 × 10^6 CFU/mL with SDB medium. The positive control was fluconazole, and the negative control was normal saline. […] The fungal liquid after adding the sample was quickly put into the 37 °C constant temperature incubator, and the shaking culture was carried out at 180 rpm. […] The plate was placed in a constant temperature incubator for inverted culture for 72 h at 37 °C, and then the single colony on the plate was counted.

[2] = test system: C. neoformans ATCC 32045 biofilm; assay: Biofilm inhibition (crystal violet); type: cell-based, Cryptococcus neoformans; conditions: 1 × MIC, 48 h, 37 °C, A600, dose-dependent
Experimental: The single colony of C. neoformans ATCC 32045 was selected and cultured at 180 rpm and 37 °C. The physiological saline was washed three times and then re-suspended. The fungal concentration was adjusted to 1 × 10^6 CFU/mL, and then 100 μL of the fungal solution was added to each hole in the 96-well plate. The samples to be tested were diluted with sterile saline to 0.5×, 1×, 2×, 4×, and 8 × MIC, and 100 μL was added to the 96-well plate and mixed well. Three replicate wells were set for each concentration. The negative control group was added to the same volume of sterile saline. The positive control group was added with 10 μM fluconazole and amphotericin B, respectively, and the above group was incubated in a 37 °C incubator for 48 h. After that, the supernatant was discarded and washed with sterile PBS three times, 1 min each time. And then, 99% methanol was added and fixed for 5 min. After staining with 100 μL 0.1% crystal violet for 5 min, the plate was washed with PBS, and 100 μL 95% ethanol was added. The absorbance at 600 nm was detected by a microplate reader.

[3] = test system: C. neoformans ATCC 32045 cell membrane; assay: Membrane potential, DiSC3(5) staining; type: cell-based, Cryptococcus neoformans; conditions: 1 × MIC, 8 × MIC and 16 × MIC; DiSC3(5) 0.5 μM, ex/em 622/670 nm
Experimental: DiSC3(5) is a fluorescent probe often used as a tracer dye to assess the cell membrane potential. […] C. neoformans ATCC 32045 was selected for SDB medium and cultured in a constant-temperature shaker at 35 °C to the logarithmic phase. The supernatant was removed by centrifugation at 3500 rpm for 5 min, washed three times with normal saline, and then the fungal solution was diluted with normal saline containing 100 mM potassium chloride to an OD600 of about 0.1. […] The above-mixed suspension was added to a fluorescence-specific 96-well plate, 190 μL per well, and the excitation/emission wavelength was set at 622/670 nm, and a microplate reader was used for measurement. The measurement was performed until the microplate reader value was stable and then continued for 20 min. The experimental group was added with 10 μL blap-6 to make the final concentrations 16 × MIC, 8 × MIC, and 1 × MIC, respectively. The positive control group was added with 10 μL of valinomycin to a final concentration of 10 μM. The negative control was added to 10 μL of normal saline. Continue to measure for 60 min. Three replicates were set up in the experiment.

C. neoformans ATCC 32045 [4] = assay: Reactive oxygen species detection, H2DCFDA; type: cell-based, Cryptococcus neoformans; conditions: 1 × MIC, 8 × MIC, 32 × MIC, 30 min, 35 °C; H2DCFDA 10 μM, 488/525 nm
Experimental: 2′,7′-Dichlorofluorescin diacetate (H2DCFDA) is a cell-permeable probe for detecting intracellular ROS [77]. […] The different concentrations of blap-6 (1 × MIC, 8 × MIC, and 32 × MIC) were incubated with the diluted fungal solution at 35 °C for 30 min, and 0.1 mM H2O2 was used as a positive control. The negative control group was treated with normal saline and incubated at 37 °C for 30 min. Centrifuged at 8000 rpm and 4 °C for 5 min, discard the supernatant, leaving the cell precipitate. The H2DCFDA dye (Boer, Shanghai, China) was dissolved in DMSO and diluted with normal saline containing 1% DMSO to a final concentration of 10 μM. And added 1 mL of H2DCFDA (10 μM) working solution to each tube and incubated at 35 °C for 30 min. And then precipitated the pellets, discarded the supernatant, and paid attention not to suck out the fungi. […] The excitation/wavelength emission was set at 488/525 nm, and three replicates were set in the experiment.

Work on KRCRFRIYRWGFPRRRF [blap-6] yielded an MIC (E. coli) of 9.77 µM, an MIC (S. aureus) of 9.77 µM and an MIC (C. albicans) of 1.22 µM. The “time within which all the fungi were killed” value (C. neoformans ATCC 32045 [1]) was ≤ 30 min, the “inhibition of biofilm formation” value [2] was “significantly inhibited” and the “change of membrane potential” value [3] was “deviations toward cell hyperpolarization in a dose-dependent manner”. The “production of reactive oxygen species (ROS)” value (C. neoformans ATCC 32045 [4]) was “concentration-dependent increase”.
